Laboratory results from paper PMC4682813, “The Aminosteroid Derivative RM-133 Shows In Vitro and In Vivo Antitumor Activity in Human Ovarian and Pancreatic Cancers” (PLoS ONE, 2015).

Key:
OVCAR-3 cells = assay: MTS cell proliferation (viability) assay, OVCAR-3; type: cell-based; settings: Homo sapiens, 72 h incubation
Description: (§1) Human ovarian (OVCAR-3) and pancreatic (PANC-1) cancer cells were purchased from the American Type Culture Collection (ATCC, Rockville, MD) and maintained in exponential growth in a 5% CO2 humidified atmosphere at 37°C. OVCAR-3 cells were routinely grown in RPMI-1640 medium (Sigma, St. Louis, MO) supplemented with 20% FBS, L-glutamine (2 mM), antibiotics (100 IU penicillin/mL and 100 μg streptomycin/mL), insulin (50 ng/mL), and estradiol (1 nM). For OVCAR-3 cell proliferation assays, the medium used was identical, except for the omission of estradiol. […]
(§2) The cell proliferation assay was performed with a colorimetric method using 3-(4,5-dimethylthiazol-2-yl)-5-(3-carboxymethoxyphenyl)2-(4-sulfophenyl)-2H-tetrazolium (MTS) (Cell Titer 96 Aqueous, Promega, Madison, WI). […] MTS is converted to water-soluble colored formazan by dehydrogenases present in metabolically active cells, and therefore, the MTS assay allows the immediate determination of absorbance of the soluble formazan directly in the cell medium and thus the measurement of viable cells. The A 490 of the medium was determined using a 96-well microplate reader INFINITE 200 PRO series (TECAN, Männedorf, Switzerland). The IC50 value of RM-133 was determined for each of the two cell lines using the GraphPad Prism 7 software (GraphPad Software, Inc., San Diego, CA).

[1] = Plasma concentration of RM-133 with different vehicles; type: in vivo, Balb/c mice; settings: female, Balb/c, mouse, sc, 120 mg/kg, single s.c. 120 mg/kg in 0.1 mL
Source text: Eleven different vehicles were investigated by s.c. injection. These vehicles were formulated as follows: vehicle #1 [propylene glycol:EtOH (92:8)]; vehicle #2 [aqueous 0.4% methylcellulose:EtOH (92:8)]; vehicle #3 [castor oil:EtOH:benzyl alcohol:benzyl benzoate (65:10:10:15)]; vehicle #4 [sunflower oil:EtOH (92:8)]; vehicle #5 [sunflower oil:tetrahydrofuran (92:8)]; vehicle #6 [aqueous 25% β-cyclodextrin:EtOH (92:8)]; vehicle #7 [sesame oil:EtOH:benzyl benzoate:benzyl alcohol:Tween 80 (89.8:7.8:1:1:0.5)]; vehicle #8 [soya oil:EtOH (92:8)]; vehicle #9 [RPMI medium:EtOH (92:8)]; vehicle #10 [saline:dimethyl sulfoxide (DMSO):Tween 80 (89.5:10:0.5)]; and vehicle #11 [saline:benzyl alcohol:carboxymethylcellulose:Tween 80 (98.2:0.9:0.5:0.4)]. The eight vehicles producing the best RM-133 solubility (#1–8) were injected s.c. (0.1 mL) without the test compound (RM-133) for tolerance and behavioral evaluation studies, by observing mice at 0.25, 1, 3, 7, 23, 26, 28, 30, and 96 h post-injection. Finally, RM-133 was injected s.c. once at 120 mg/kg/0.1 mL of the best […] tolerated vehicles (#1,2,4–7) into ♀ Balb/c mice (4 per group), and mice were next monitored with blood collection by cardiac puncture after 3 and 12 h. The plasma concentration of RM-133 was then determined by LC-MS/MS as above.

PANC-1 cells = assay: MTS cell proliferation (viability) assay, PANC-1; type: cell-based; settings: Homo sapiens, 72 h incubation
Description: as §1, §2

CYP3A4 = system: CYP3A4; set-up: method as in PMID 25300820; settings: low to moderate risk of drug-drug interactions; cited from earlier work
CYP2D6 = system: CYP2D6; set-up: method as in PMID 25300820; settings: low to moderate risk of drug-drug interactions; cited from earlier work
[2] = system: OVCAR-3 tumors xenografted in nu/nu nude mice; assay: OVCAR-3 xenografts using the two selected vehicles; type: in vivo
Source text: All in vivo experiments were approved by our Institutional Animal Care and Use Committee (Comités de protection des animaux de l’Université Laval) and carried out according to the guidelines of the Canadian Council on Animal Care. For xenografts, homozygous ♀ nu/nu nude mice (24–42 days old) were purchased from Charles River Inc. (Saint-Constant, QC, Canada) and housed (four to five) in vinyl micro-isolated ventilated cages, equipped with air lids, which were kept in laminar airflow hoods and maintained under pathogen-limiting conditions. During the acclimatization and study period, the animals were housed under a controlled environment at 22 ± 3°C, with 50 ± 20% relative humidity and light set at 12 h/day (light on at 07:15). Rodent food (Rodent diet #T.2018.15, Harlan Teklad, Madison, WI) and water were provided ad libitum. For nu/nu nude mice, food and water were sterilized prior to dispensing to the animals. Standard Balb/c mice were used for pharmacokinetic studies. Animals were anesthetized with isoflurane and killed by cervical dislocation.
Fourty ♀ nu/nu nude mice (22–24 g) were inoculated with 5×10^6 OVCAR-3 cells per flank, in 30% matrigel-containing culture medium (0.1 mL). After 23 days, tumor-bearing mice were randomized in 4 groups of 8 to 9 mice each. […] Two control mouse groups, each representing 12 tumors, received only the vehicles. As mentioned above, the tumor area was measured twice weekly and body weight monitored.

[3] = vehicle #1 propylene glycol (92%) EtOH (8%)
[4] = vehicle #2 aqueous 0.4% methylcellulose (92%) EtOH (8%)
[5] = vehicle #4 sunflower oil (92%) EtOH (8%)
[6] = vehicle #5 sunflower oil (92%) tetrahydrofuran (8%)
[7] = vehicle #6 aqueous 25% β-cyclodextrin (92%) EtOH (8%)
[8] = sunflower oil:EtOH (92:8), 240 mg/kg s.c. every other day

With `C#C[C@]1(O)CC[C@H]2[C@@H]3CC[C@H]4C[C@H](O)[C@@H](N5CCN(C(=O)[C@@H]6CCCN6C(=O)c6ccc7ccccc7n6)CC5)C[C@]4(C)[C@H]3CC[C@@]21C` [RM-133] the IC50 (OVCAR-3 cells) was 800 nM, the concentration at 3 h [1, 3] was 314 ± 2 ng/mL and the concentration at 12 h [1, 3] was 189 ± 5 ng/mL. The concentration at 3 h [1, 4] was 449 ± 5 ng/mL, the concentration at 12 h [1, 4] was 171 ± 10 ng/mL and the concentration at 3 h [1, 5] was 285 ± 5 ng/mL. The concentration at 12 h [1, 5] was 173 ± 6 ng/mL, the concentration at 3 h [1, 6] was 642 ± 20 ng/mL and the concentration at 12 h [1, 6] was 374 ± 9 ng/mL. For the same compound, the concentration at 3 h [1, 7] was 2960 ± 121 ng/mL, the concentration at 12 h [1, 7] was 1780 ± 47 ng/mL and the IC50 (PANC-1 cells) was 300 nM. For the same compound, the “inhibition of CYP3A4” value (CYP3A4) was “weak inhibition”, the “inhibition of CYP2D6” value (CYP2D6) was “weak inhibition” and the “day at which tumor growth became significantly different from control” value ([2]; aqueous 0.4% methylcellulose:EtOH (92:8), 240 mg/kg s.c. twice a day every other day) was 15 days. The “tumor size relative to its initial value” ([2]; aqueous 0.4% methylcellulose:EtOH (92:8), 240 mg/kg s.c. twice a day every other day, end of treatment (35 days)) was 78%, the “OVCAR-3 tumor growth inhibition” value ([2]; aqueous 0.4% methylcellulose:EtOH (92:8), 240 mg/kg/0.2 mL s.c. twice a day every other day, after 28 days) was 100% and the “abnormal behavior or death” value ([2]; aqueous 0.4% methylcellulose:EtOH (92:8), 35-day treatment period) was “neither abnormal behavior nor death”. The “reduction of OVCAR-3 xenograft growth” value ([2]; methylcellulose-based vehicle, s.c. (abstract)) was 122%, the “body weight, treated vs control” value [2, 8] was “No significant difference” and the “day at which the effect on tumor growth became significant” value [2, 8] was 28 days. For the same compound, the “toxicity symptoms during the study or at necropsy” value [2, 8] was “no toxicity symptom”, the “OVCAR-3 tumor growth inhibition” value ([2]; sunflower oil:EtOH (92:8), 240 mg/kg/0.2 mL s.c. once every other day, end of treatment (40 days)) was 100% and the “tumor growth after treatment was stopped” value ([2]; sunflower oil:EtOH (92:8), treatment stopped at day 40, no significant difference seven days after termination) was “tumor growth resumed”.
